# Laboratory results: patent US8729082B2, “Substituted imidazoquinoxalines” (Bayer Intellectual Property GmbH, priority 2009, dated 2014)
# Target: T1, human kinase Mps-1 (Homo sapiens, UniProt P33981)
# T1 construct: N-terminally GST-tagged human full length recombinant Mps-1 kinase; purchased Invitrogen, Karslruhe, Germany PV4071
# T1 sequence (P33981 1-857): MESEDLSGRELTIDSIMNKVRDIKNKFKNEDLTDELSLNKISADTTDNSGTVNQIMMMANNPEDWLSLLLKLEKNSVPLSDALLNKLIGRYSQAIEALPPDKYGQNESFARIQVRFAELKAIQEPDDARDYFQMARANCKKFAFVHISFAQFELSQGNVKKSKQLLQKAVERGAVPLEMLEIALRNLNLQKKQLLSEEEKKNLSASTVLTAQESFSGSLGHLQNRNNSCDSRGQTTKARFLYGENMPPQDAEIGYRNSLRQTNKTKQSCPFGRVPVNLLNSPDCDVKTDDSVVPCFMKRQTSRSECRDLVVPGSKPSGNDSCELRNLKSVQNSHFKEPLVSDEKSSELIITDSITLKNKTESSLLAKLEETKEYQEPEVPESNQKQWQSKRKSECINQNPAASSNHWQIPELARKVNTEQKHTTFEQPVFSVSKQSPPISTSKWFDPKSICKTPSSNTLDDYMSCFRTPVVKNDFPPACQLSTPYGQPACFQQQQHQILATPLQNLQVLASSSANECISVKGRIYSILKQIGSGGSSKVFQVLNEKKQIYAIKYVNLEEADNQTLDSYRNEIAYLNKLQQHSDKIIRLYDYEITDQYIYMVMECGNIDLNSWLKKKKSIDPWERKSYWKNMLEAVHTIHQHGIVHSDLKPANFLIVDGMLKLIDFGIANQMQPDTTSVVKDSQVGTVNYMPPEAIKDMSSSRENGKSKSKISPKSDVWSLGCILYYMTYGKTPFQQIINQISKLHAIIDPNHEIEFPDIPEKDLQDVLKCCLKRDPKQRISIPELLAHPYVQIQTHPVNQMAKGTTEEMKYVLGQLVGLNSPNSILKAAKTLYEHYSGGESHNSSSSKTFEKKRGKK
# Test: Mps-1 kinase assay (HTRF)
# Format: biochemical
# Details: lowATP; mean; read-out: Mps1 lowATP mean IC50
# In short: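 HTRF readout: EDTA-stopped reactions incubated 1 h with europium anti-phospho(Ser/Thr) antibody and streptavidin-XLent, emission ratio 665/620 nm after 350 nm excitation. Kinase step: compound pre-bound 15 min to ~1 nM GST-Mps-1, then 60 min at 22 °C with ATP and biotin-peptide substrate; inhibition scaled between no-inhibitor (0%) and no-enzyme (100%) controls.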
row,Structure (SMILES),IC50
1,"O=C(NC1CC1)c1ccc(-c2cnc3c(NCc4cccnc4)nc4ccc(F)cc4n23)cc1Cl [Example 2-81, 2-chloro-N-cyclopropyl-4-{8-fluoro-4-[(pyridin-3-ylmethyl)amino]imidazo[1,2-a]quinoxalin-1-yl}benzamide]",1420 nM
2,"O=C(NC1CC1)c1ccc(-c2cnc3c(NCc4ccncc4)nc4ccc(F)cc4n23)cc1Cl [Example 2-82, 2-chloro-N-cyclopropyl-4-{8-fluoro-4-[(pyridin-4-ylmethyl)amino]imidazo[1,2-a]quinoxalin-1-yl}benzamide]",1090 nM
3,"COCCCNc1nc2ccc(F)cc2n2c(-c3ccc(C(=O)NC4CC4)c(Cl)c3)cnc12 [Example 2-83, 2-chloro-N-cyclopropyl-4-{8-fluoro-4-[(3-methoxypropyl)amino]imidazo[1,2-a]quinoxalin-1-yl}benzamide]",6700 nM
4,"CC(C)(C)OC(=O)NCCCNc1nc2ccc(F)cc2n2c(-c3ccc(C(=O)NC4CC4)c(Cl)c3)cnc12 [Example 2-84, tert-butyl [3-({1-[3-chloro-4-(cyclopropylcarbamoyl)phenyl]-8-fluoroimidazo[1,2-a]quinoxalin-4-yl}amino)propyl]carbamate]",2880 nM
5,"Cn1nccc1CNc1nc2ccc(F)cc2n2c(-c3ccc(C(=O)NC4CC4)c(Cl)c3)cnc12 [Example 2-85, 2-chloro-N-cyclopropyl-4-(8-fluoro-4-{[(1-methyl-1H-pyrazol-5-yl)methyl]amino}imidazo[1,2-a]quinoxalin-1-yl)benzamide]",761 nM
6,"Cn1cc(CNc2nc3ccc(F)cc3n3c(-c4ccc(C(=O)NC5CC5)c(Cl)c4)cnc23)cn1 [Example 2-86, 2-chloro-N-cyclopropyl-4-(8-fluoro-4-{[(1-methyl-1H-pyrazol-4-yl)methyl]amino}imidazo[1,2-a]quinoxalin-1-yl)benzamide]",1640 nM
7,"CCCNc1nc2cc(F)c(F)cc2n2c(-c3ccc(C(=O)NC4CC4)cc3)cnc12 [Example 2-88, N-cyclopropyl-4-[7,8-difluoro-4-(propylamino)imidazo[1,2-a]quinoxalin-1-yl]benzamide]",28.6 nM
8,"O=C(NC1CC1)c1ccc(-c2cnc3c(NCCO)nc4cc(F)c(F)cc4n23)cc1 [Example 2-89, N-cyclopropyl-4-{7,8-difluoro-4-[(2-hydroxyethyl)amino]imidazo[1,2-a]quinoxalin-1-yl}benzamide]",286 nM
9,"O=C(NC1CC1)c1ccc(-c2cnc3c(NCCCN4CCOCC4)nc4cc(F)c(F)cc4n23)cc1 [Example 2-90, N-cyclopropyl-4-(7,8-difluoro-4-{[3-(morpholin-4-yl)propyl]amino}imidazo[1,2-a]quinoxalin-1-yl)benzamide]",438 nM
10,"CC(C)CCNc1nc2cc(F)c(F)cc2n2c(-c3ccc(C(=O)NC4CC4)cc3)cnc12 [Example 2-91, N-cyclopropyl-4-{7,8-difluoro-4-[(3-methylbutyl)amino]imidazo[1,2-a]quinoxalin-1-yl}benzamide]",55.5 nM
11,"O=C(NC1CC1)c1ccc(-c2cnc3c(NCc4cccc(F)c4)nc4cc(F)c(F)cc4n23)cc1 [Example 2-92, N-cyclopropyl-4-{7,8-difluoro-4-[(3-fluorobenzyl)amino]imidazo[1,2-a]quinoxalin-1-yl}benzamide]",143 nM
12,"O=C(NC1CC1)c1ccc(-c2cnc3c(NCCCN4CCCC4=O)nc4cc(F)c(F)cc4n23)cc1 [Example 2-93, N-cyclopropyl-4-(7,8-difluoro-4-{[3-(2-oxopyrrolidin-1-yl)propyl]amino}imidazo[1,2-a]quinoxalin-1-yl)benzamide]",382 nM
13,"COCCNc1nc2cc(F)c(F)cc2n2c(-c3ccc(C(=O)NC4CC4)cc3)cnc12 [Example 2-94, N-cyclopropyl-4-{7,8-difluoro-4-[(2-methoxyethyl)amino]imidazo[1,2-a]quinoxalin-1-yl}benzamide]",161 nM
14,"O=C(NC1CC1)c1ccc(-c2cnc3c(NCc4ccc(F)cc4)nc4cc(F)c(F)cc4n23)cc1 [Example 2-95, N-cyclopropyl-4-{7,8-difluoro-4-[(4-fluorobenzyl)amino]imidazo[1,2-a]quinoxalin-1-yl}benzamide]",75.8 nM
15,"O=C(NC1CC1)c1ccc(-c2cnc3c(NCCCCO)nc4cc(F)c(F)cc4n23)cc1 [Example 2-96, N-cyclopropyl-4-{7,8-difluoro-4-[(4-hydroxybutyl)amino]imidazo[1,2-a]quinoxalin-1-yl}benzamide]",59.5 nM
16,"O=C(NC1CC1)c1ccc(-c2cnc3c(NCC(F)(F)F)nc4cc(F)c(F)cc4n23)cc1 [Example 2-97, N-cyclopropyl-4-{7,8-difluoro-4-[(2,2,2-trifluoroethyl)amino]imidazo[1,2-a]quinoxalin-1-yl}benzamide]",93.7 nM
17,"O=C(NC1CC1)c1ccc(-c2cnc3c(NCc4cccs4)nc4cc(F)c(F)cc4n23)cc1 [Example 2-98, N-cyclopropyl-4-{7,8-difluoro-4-[(thiophen-2-ylmethyl)amino]imidazo[1,2-a]quinoxalin-1-yl}benzamide]",62.2 nM
18,"CCNc1nc2cc(F)c(F)cc2n2c(-c3ccc(C(=O)NC4CC4)cc3)cnc12 [Example 2-99, N-cyclopropyl-4-[4-(ethylamino)-7,8-difluoroimidazo[1,2-a]quinoxalin-1-yl]benzamide]",59.8 nM
19,"O=C(NC1CC1)c1ccc(-c2cnc3c(NCCCO)nc4cc(F)c(F)cc4n23)cc1 [Example 2-100, N-cyclopropyl-4-{7,8-difluoro-4-[(3-hydroxypropyl)amino]imidazo[1,2-a]quinoxalin-1-yl}benzamide]",75.3 nM
20,"CCCCNc1nc2cc(F)c(F)cc2n2c(-c3ccc(C(=O)NC4CC4)cc3)cnc12 [Example 2-101, 4-[4-(butylamino)-7,8-difluoroimidazo[1,2-a]quinoxalin-1-yl]-N-cyclopropylbenzamide]",28.3 nM
21,"CC(=O)NCCNc1nc2cc(F)c(F)cc2n2c(-c3ccc(C(=O)NC4CC4)cc3)cnc12 [Example 2-102, 4-(4-{[2-(acetylamino)ethyl]amino}-7,8-difluoroimidazo[1,2-a]quinoxalin-1-yl)-N-cyclopropylbenzamide]",584 nM
22,"O=C(NC1CC1)c1ccc(-c2cnc3c(NCCCn4ccnc4)nc4cc(F)c(F)cc4n23)cc1 [Example 2-103, N-cyclopropyl-4-(7,8-difluoro-4-{[3-(1H-imidazol-1-yl)propyl]amino}imidazo[1,2-a]quinoxalin-1-yl)benzamide]",229 nM
23,"O=C(NC1CC1)c1ccc(-c2cnc3c(NCC4CC4)nc4cc(F)c(F)cc4n23)cc1 [Example 2-104, N-cyclopropyl-4-{4-[(cyclopropylmethyl)amino]-7,8-difluoroimidazo[1,2-a]quinoxalin-1-yl}benzamide]",34.1 nM
24,"O=C(NC1CC1)c1ccc(-c2cnc3c(NCc4ccco4)nc4cc(F)c(F)cc4n23)cc1 [Example 2-105, N-cyclopropyl-4-{7,8-difluoro-4-[(furan-2-ylmethyl)amino]imidazo[1,2-a]quinoxalin-1-yl}benzamide]",52.8 nM
25,"CC(C)CNc1nc2cc(F)c(F)cc2n2c(-c3ccc(C(=O)NC4CC4)cc3)cnc12 [Example 2-106, N-cyclopropyl-4-{7,8-difluoro-4-[(2-methylpropyl)amino]imidazo[1,2-a]quinoxalin-1-yl}benzamide]",24.5 nM
26,"NC(=O)CCNc1nc2cc(F)c(F)cc2n2c(-c3ccc(C(=O)NC4CC4)cc3)cnc12 [Example 2-107, 4-{4-[(3-amino-3-oxopropyl)amino]-7,8-difluoroimidazo[1,2-a]quinoxalin-1-yl}-N-cyclopropylbenzamide]",233 nM
27,"COCCCNc1nc2cc(F)c(F)cc2n2c(-c3ccc(C(=O)NC4CC4)cc3)cnc12 [Example 2-108, N-cyclopropyl-4-{7,8-difluoro-4-[(3-methoxypropyl)amino]imidazo[1,2-a]quinoxalin-1-yl}benzamide]",114 nM
28,"Cn1ccc(CNc2nc3cc(F)c(F)cc3n3c(-c4ccc(C(=O)NC5CC5)cc4)cnc23)n1 [Example 2-109, N-cyclopropyl-4-(7,8-difluoro-4-{[(1-methyl-1H-pyrazol-3-yl)methyl]amino}imidazo[1,2-a]quinoxalin-1-yl)benzamide]",256 nM
29,"Cn1nccc1CNc1nc2cc(F)c(F)cc2n2c(-c3ccc(C(=O)NC4CC4)cc3)cnc12 [Example 2-110, N-cyclopropyl-4-(7,8-difluoro-4-{[(1-methyl-1H-pyrazol-5-yl)methyl]amino}imidazo[1,2-a]quinoxalin-1-yl)benzamide]",28.5 nM
